Results published in US20260315604A1, “OTUB1 Small-Molecule Binders and OTUB1-recruiting Deubiquitinase-targeting Chimeras (DUBTACs)” (ICAHN SCHOOL OF MEDICINE AT MOUNT SINAI, priority 2023, published 2026).

Target: T1, Human OTUB1 wild-type (Homo sapiens, UniProt Q96FW1)
T1 construct: His tag (N); made in house; host or cells: E. coli BL21-CodonPlus (DE3)-RIPIL
Assay: Covalent modification of OTUB1 (adduct formation), mass spectrometry-based assay (OTUB1 covalent binders; selected CFTR or cGAS based bivalent compounds)
Assay type: binding
Conditions: covalent adduct formation with OTUB1 protein
Procedure: OTUB1 covalent binders were tested for their ability to form the covalent adduct with OTUB1 protein using a mass-spectrometry based assay.
Example 389. Assessment of the Covalent Modification of OTUB1 Protein by Selected OTUB1 Covalent Binders Using a Mass Spectrometry-Based Assay (FIG. 1)
OTUB1 protein (10 μM) was incubated with selecting compounds (2500 μM) at RT for 1 h. The adduct was qualified by mass spectrometry-based assays.
Example 398. Assessment of the Covalent Modification of OTUB1 Protein by Selected CFTR Based Bivalent Compounds Using Mass Spectrometry-Based Assay (FIG. 10)
OTUB1 protein (10 μM) was incubated with selecting bivalent compounds (2500 μM) at RT for 1 h. The adduct was qualified by mass spectrometry-based assays.
Human OTUB1 wild-type (NM_017670.3) and C23S mutation genes were optimized based on the codon preference of E. coli, synthesized and cloned into pET15b vector with a N-terminal His tag by Genscript, respectively. The plasmid was transferred to BL21-CodonPlus (DE3)-RIPIL Competent Cell (230280, Agilent Technologies) and the recombinant protein was induced expressed by 0.5 mM IPTG at 16° C. with shaking 200 rpm for 18 h. Induced cells were harvested by centrifugation and resuspended in cold lysis buffer (50 mM Tris-H—Cl pH 7.5, 150 mM NaCl, 25 mM imidazole pH 7.5, 0.01% IGEPAL, 5% Glycerol) in the presence of Pierce Protease Inhibitor tablets (PIA32963, Fisher Scientific) and 2 mM TCEP pH 7.5.
The cells were lysed by sonication, clarified by centrifugation, and the filtered supernatant loaded onto a 5 ml HisTrap HP affinity column (17524802, Cytiva) in AKTA system. The His-recombinant protein bound to column was washed using buffer A (50 mM Tris-HCl pH 7.5, 150 mM NaCl, 25 mM imidazole pH 7.5, 0.01% IGEPAL, 5% Glycerol) and eluted with buffer B (50 mM Tris-HCl pH 7.5, 150 mM NaCl, 250 mM imidazole pH 7.5, 0.01% IGEPAL, 5% Glycerol). The eluted fractions containing OTUB1 protein were concentrated and subjected to size exclusion chromatography using a 320 mL HiLoad 26/600 Superdex 200 pg column (28989336, Cytiva) under the buffer condition ([…] Tris-HCl pH 7.5, 150 mM NaCl, and 2 mM TCEP pH 7.5). The eluted fractions containing OTUB1 protein were concentrated, divided into aliquots and stored at −80° C. freezer for further usage.
Quality control of the OTUB1 proteins was performed by SDS-PAGE, Nanodrop and mass spectrometry.
Mass Spectrometry-Based Analysis of OTUB1-Covalent Ligand Adducts
To screen the covalent ligands, recombinant OTUB1 protein (10 μM) was respectively incubated with DMSO, EN523 or seven novel ligands (2500 μM) in reaction buffer (50 mM Tris-HCl pH 7.5, 150 mM NaCl, and 0.5 mM TCEP pH 7.5) for 1 h at room temperature.
Then, the total 500 μL reaction solution was exchanged and concentrated to 50 μL 50 mM ammonium bicarbonate with a 10 kDa MWCO centrifugal filter unit (UFC901024, Millipore) and diluted in MS buffer (30% ACN, 0.2% FA) to a final concentration of […]. Mass spectrometry detection was performed by an Agilent LC/MSD Time-Of-Flight (TOF) mass spectrometer (Agilent Technologies) equipped with an electrospray ion source. The data was analyzed by TOF Protein Confirmation Software. All experiments were performed in duplicate.

T1 sequence (Q96FW1 whole entry): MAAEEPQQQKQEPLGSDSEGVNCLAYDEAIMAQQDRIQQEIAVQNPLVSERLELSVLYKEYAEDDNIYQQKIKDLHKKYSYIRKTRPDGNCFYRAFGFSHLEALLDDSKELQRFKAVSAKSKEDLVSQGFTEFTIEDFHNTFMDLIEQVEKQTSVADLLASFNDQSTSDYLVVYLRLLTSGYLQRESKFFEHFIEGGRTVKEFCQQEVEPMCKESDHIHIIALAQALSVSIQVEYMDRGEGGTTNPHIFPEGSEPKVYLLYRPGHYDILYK

Row | SMILES | % of OTUB1 modified [%]
1 | C=CC(=O)N1CCN(c2ccc(C)s2)C(=O)C1 [XS154-91, 4-acryloyl-1-(5-methylthiophen-2-yl)piperazin-2-one] | 52
2 | C=CC(=O)N1CCN(c2ncc(C)s2)C(=O)C1 [XS154-148, 4-acryloyl-1-(5-methylthiazol-2-yl)piperazin-2-one] | 39
3 | C=CC(=O)N1CCN(c2cnc(C)s2)C(=O)C1 [XS154-184, 4-acryloyl-1-(2-methylthiazol-5-yl)piperazin-2-one] | <5
4 | C=CC(=O)N1CCN(c2cccc(C)n2)C(=O)C1 [XS159-90, 4-acryloyl-1-(6-methylpyridin-2-yl)piperazin-2-one] | <5
5 | C=CC(=O)N1CCN(c2cnc(C)n2C)C(=O)C1 [XS165-30, 4-acryloyl-1-(1,2-dimethyl-1H-imidazol-5-yl)piperazin-2-one] | <5
6 | C=CC(=O)N1C2CCC1CN(c1cccc(C)c1)C2 [XS165-33, 1-(3-(m-tolyl)-3,8-diazabicyclo[3.2.1]octan-8-yl)prop-2-en-1-one] | 5
7 | C=CC(=O)N1CCC(=O)N(c2cccc(C)c2)CC1 [XS165-53, 1-acryloyl-4-(m-tolyl)-1,4-diazepan-5-one] | 5
8 | C=CC(=O)N1CC2CCC(C1)N2c1cccc(C)c1 [XS165-54, 1-(8-(m-tolyl)-3,8-diazabicyclo[3.2.1]octan-3-yl)prop-2-en-1-one] | 1
9 | Cc1cccc(N2CCN(C(=O)C#C[Si](C)(C)C)CC2=O)c1 [XS165-77, 1-(m-tolyl)-4-(3-(trimethylsilyl)propioloyl)piperazin-2-one] | 100
10 | Cc1cccc(N2CCN(C(=O)/C=C/CN(C)C)CC2=O)c1 [XS165-99, (E)-4-(4-(dimethylamino)but-2-enoyl)-1-(n-tolyl)piperazin-2-one] | 38
11 | Cc1ccc(N2CCN(C(=O)/C=C/CN(C)C)CC2=O)o1 [XS165-100, (E)-4-(4-(dimethylamino)but-2-enoyl)-1-(5-methylfuran-2-yl)piperazin-2-one] | 25
12 | Cc1ccc(N2CCN(C(=O)/C=C/CN(C)C)CC2=O)s1 [XS165-105, (E)-4-(4-(dimethylamino)but-2-enoyl)-1-(5-methylthiophen-2-yl)piperazin-2-one] | 70
13 | Cc1cccc(N2CCN(C(=O)/C=C/CN(C)C)CC2=O)n1 [XS165-109, (E)-4-(4-(dimethylamino)but-2-enoyl)-1-(6-methylpyridin-2-yl)piperazin-2-one] | 10
14 | Cc1ccc(N2CCN(C(=O)CCl)CC2=O)s1 [XS165-119, 4-(2-chloroacetyl)-1-(5-methylthiophen-2-yl)piperazin-2-one] | 25
15 | Cc1cccc(N2CCN(C(=O)CCl)CC2=O)n1 [XS165-120, 4-(2-chloroacetyl)-1-(6-methylpyridin-2-yl)piperazin-2-one] | 100
16 | Cc1cccc(N2CC3CCC(C2)N3C(=O)CCl)n1 [XS165-121, 2-chloro-1-(3-(6-methylpyridin-2-yl)-3,8-diazabicyclo[3.2.1]octan-8-yl)ethan-1-one] | 100
17 | Cc1cnc(N2CCN(C(=O)CCl)CC2=O)s1 [XS165-123, 4-(2-chloroacetyl)-1-(5-methylthiazol-2-yl)piperazin-2-one] | 100

Row | SMILES | % of OTUB1 modified [%]
18 | Cc1ccc(N2CCN(C(=O)/C=C/CN3CCCC3)CC2=O)s1 [XS165-154, (E)-1-(5-methylthiophen-2-yl)-4-(4-(pyrrolidin-1-yl)but-2-enoyl)piperazin-2-one] | 70
19 | Cc1ccc(N2CCN(C(=O)/C=C/CN3CCOCC3)CC2=O)s1 [XS165-155, (E)-1-(5-methylthiophen-2-yl)-4-(4-morpholinobut-2-enoyl)piperazin-2-one] | <5
20 | Cc1ccc(N2CCN(C(=O)/C=C/CN3CCCCC3)CC2=O)s1 [XS165-170, (E)-1-(5-methylthiophen-2-yl)-4-(4-(piperidin-1-yl)but-2-enoyl)piperazin-2-one] | 70
21 | Cc1ccc(N2CCN(C(=O)/C=C/CN(C)C)CC2)s1 [XS165-172, (E)-4-(dimethylamino)-1-(4-(5-methylthiophen-2-yl)piperazin-1-yl)but-2-en-1-one] | <1
22 | Cc1ccc(N2CCN(C(=O)/C(C#N)=C/C(C)(C)C)CC2=O)s1 [XS165-177, (E)-4,4-dimethyl-2-(4-(5-methylthiophen-2-yl)-3-oxopiperazine-1-carbonyl)pent-2-enenitrile] | 10
23 | Cc1cc(C)c(N2CCN(C(=O)/C=C/CN(C)C)CC2=O)s1 [XS175-45, (E)-4-(4-(dimethylamino)but-2-enoyl)-1-(3,5-dimethylthiophen-2-yl)piperazin-2-one] | 45
24 | Cc1csc(N2CCN(C(=O)/C=C/CN(C)C)CC2=O)c1 [XS175-46, (E)-4-(4-(dimethylamino)but-2-enoyl)-1-(4-methylthiophen-2-yl)piperazin-2-one] | 90
25 | Cc1cc(N2CCN(C(=O)/C=C/CN(C)C)CC2=O)cs1 [XS175-59, (E)-4-(4-(dimethylamino)but-2-enoyl)-1-(5-methylthiophen-3-yl)piperazin-2-one] | 80
26 | CCc1ccc(N2CCN(C(=O)/C=C/CN(C)C)CC2=O)s1 [XS175-63, (E)-4-(4-(dimethylamino)but-2-enoyl)-1-(5-ethylthiophen-2-yl)piperazin-2-one] | 75
27 | CC(C)c1ccc(N2CCN(C(=O)/C=C/CN(C)C)CC2=O)s1 [XS175-64, (E)-4-(4-(dimethylamino)but-2-enoyl)-1-(5-isopropylthiophen-2-yl)piperazin-2-one] | 95
28 | Cc1sccc1N1CCN(C(=O)/C=C/CN(C)C)CC1=O [XS175-67, (E)-4-(4-(dimethylamino)but-2-enoyl)-1-(2-methylthiophen-3-yl)piperazin-2-one] | 60
29 | Cc1ccsc1N1CCN(C(=O)/C=C/CN(C)C)CC1=O [XS175-68, (E)-4-(4-(dimethylamino)but-2-enoyl)-1-(3-methylthiophen-2-yl)piperazin-2-one] | 70
30 | Cc1cc(N2CCN(C(=O)/C=C/CN(C)C)CC2=O)sc1C [XS175-70, (E)-4-(4-(dimethylamino)but-2-enoyl)-1-(4,5-dimethylthiophen-2-yl)piperazin-2-one] | 90
31 | Cc1ccc(NC(=O)C2CN(C(=O)/C=C/CN(C)C)C2)s1 [XS175-71, (E)-1-(4-(dimethylamino)but-2-enoyl)-N-(5-methylthiophen-2-yl)azetidine-3-carboxamide] | 40
32 | Cc1ccc(N2CCCN(C(=O)/C=C/CN(C)C)CC2=O)s1 [XS175-120, (E)-4-(4-(dimethylamino)but-2-enoyl)-1-(5-methylthiophen-2-yl)-1,4-diazepan-2-one] | 47
33 | Cc1ccc(NC(=O)C2CN(C(=O)CCl)C2)s1 [XS175-126, 1-(2-chloroacetyl)-N-(5-methylthiophen-2-yl)azetidine-3-carboxamide] | 100
34 | Cc1ccc(NC(=O)C2CCN(C(=O)/C=C/CN(C)C)C2)s1 (stereo not shown) [XS175-133, (E)-1-(4-(dimethylamino)but-2-enoyl)-N-(5-methylthiophen-2-yl)pyrrolidine-3-carboxamide] | 2
